What was measured:
Assay type in all cases: functional
SK-MEL-28 = test: Growth inhibition of human SK-MEL-28 cells by sulforhodamine B assay
HCT-15 = test: Growth inhibition of human HCT15 cells assessed as cell growth at 10^-4 M by sulforhodamine B assay; conditions: read-out: Activity
NCI-H226 [1] = test: Growth inhibition of human NCI-H226 cells assessed as cell growth at 10^-7 M by sulforhodamine B assay; conditions: read-out: Activity
MDA-MB-468 [2] = test: Growth inhibition of human MDA-MB-468 cells assessed as cell growth at 10^-8 M by sulforhodamine B assay; conditions: read-out: Activity
IGROV-1 = test: Growth inhibition of human IGROV1 cells assessed as cell growth at 10^-8 M by sulforhodamine B assay; conditions: read-out: Activity
SN12C [3] = test: Growth inhibition of human SN12C cells by sulforhodamine B assay
NCI-H226 [4] = test: Growth inhibition of human NCI-H226 cells by sulforhodamine B assay
SNB-19 [5] = test: Growth inhibition of human SNB19 cells assessed as cell growth at 10^-7 M by sulforhodamine B assay; conditions: read-out: Activity
RPMI-8226 = test: Growth inhibition of human RPMI8226 cells assessed as cell growth at 10^-8 M by sulforhodamine B assay; conditions: read-out: Activity
NCI-H322M = test: Growth inhibition of human NCI-H322M cells assessed as cell growth at 10^-7 M by sulforhodamine B assay; conditions: read-out: Activity
UO-31 [6] = test: Growth inhibition of human UO31 cells assessed as cell growth at 10^-6 M by sulforhodamine B assay; conditions: read-out: Activity
SW-620 [7] = test: Growth inhibition of human SW620 cells assessed as cell growth at 10^-6 M by sulforhodamine B assay; conditions: read-out: Activity
SNB-19 [8] = test: Growth inhibition of human SNB19 cells assessed as cell growth at 10^-4 M by sulforhodamine B assay; conditions: read-out: Activity
SW-620 [9] = test: Growth inhibition of human SW620 cells assessed as cell growth at 10^-7 M by sulforhodamine B assay; conditions: read-out: Activity
UO-31 [10] = test: Growth inhibition of human UO31 cells by sulforhodamine B assay
NCI-H460 = test: Growth inhibition of human NCI-H460 cells assessed as cell growth at 10^-6 M by sulforhodamine B assay; conditions: read-out: Activity
OVCAR-5 = test: Growth inhibition of human OVCAR5 cells by sulforhodamine B assay
SK-MEL-2 = test: Growth inhibition of human SK-MEL-2 cells assessed as cell growth at 10^-4 M by sulforhodamine B assay; conditions: read-out: Activity
HOP-62 [11] = test: Growth inhibition of human HOP62 cells assessed as cell growth at 10^-7 M by sulforhodamine B assay; conditions: read-out: Activity
NCI-H226 [12] = test: Growth inhibition of human NCI-H226 cells assessed as cell growth at 10^-4 M by sulforhodamine B assay; conditions: read-out: Activity
MDA-MB-231 = test: Growth inhibition of human MDA-MB-231 cells assessed as cell growth at 10^-7 M by sulforhodamine B assay; conditions: read-out: Activity
A498 = test: Growth inhibition of human A498 cells assessed as cell growth at 10^-8 M by sulforhodamine B assay; conditions: read-out: Activity
K562 = test: Growth inhibition of human K562 cells by sulforhodamine B assay
HOP-92 = test: Growth inhibition of human HOP92 cells assessed as cell growth at 10^-4 M by sulforhodamine B assay; conditions: read-out: Activity
NCI-H23 [13] = test: Growth inhibition of human NCI-H23 cells assessed as cell growth at 10^-8 M by sulforhodamine B assay; conditions: read-out: Activity
DU-145 = test: Growth inhibition of human DU145 cells assessed as cell growth at 10^-8 M by sulforhodamine B assay; conditions: read-out: Activity
A549 [14] = test: Growth inhibition of human A549/ATCC cells assessed as cell growth at 10^-4 M by sulforhodamine B assay; conditions: read-out: Activity
SN12C [15] = test: Growth inhibition of human SN12C cells assessed as cell growth at 10^-8 M by sulforhodamine B assay; conditions: read-out: Activity
UACC-62 [16] = test: Growth inhibition of human UACC62 cells assessed as cell growth at 10^-8 M by sulforhodamine B assay; conditions: read-out: Activity
A549 [17] = test: Growth inhibition of human A549/ATCC cells assessed as cell growth at 10^-6 M by sulforhodamine B assay; conditions: read-out: Activity
NCI-H23 [18] = test: Growth inhibition of human NCI-H23 cells assessed as cell growth at 10^-6 M by sulforhodamine B assay; conditions: read-out: Activity
UACC-62 [19] = test: Growth inhibition of human UACC62 cells assessed as cell growth at 10^-6 M by sulforhodamine B assay; conditions: read-out: Activity
[20] = Growth inhibition of human Hs 578T cells assessed as cell growth at 10^-6 M by sulforhodamine B assay; conditions: read-out: Activity
NCI-H522 = test: Growth inhibition of human NCI-H522 cells assessed as cell growth at 10^-8 M by sulforhodamine B assay; conditions: read-out: Activity
M14 = test: Growth inhibition of human M14 cells by sulforhodamine B assay
MOLT-4 = test: Growth inhibition of human MOLT4 cells assessed as cell growth at 10^-6 M by sulforhodamine B assay; conditions: read-out: Activity
MDA-MB-468 [21] = test: Growth inhibition of human MDA-MB-468 cells assessed as cell growth at 10^-6 M by sulforhodamine B assay; conditions: read-out: Activity
HOP-62 [22] = test: Growth inhibition of human HOP62 cells assessed as cell growth at 10^-6 M by sulforhodamine B assay; conditions: read-out: Activity
[23] = Growth inhibition of human NCI-ADR-RES cells assessed as cell growth at 10^-6 M by sulforhodamine B assay; conditions: read-out: Activity
SNB-75 = test: Growth inhibition of human SNB75 cells assessed as cell growth at 10^-6 M by sulforhodamine B assay; conditions: read-out: Activity
[24] = read-out: LC50 (the source's name)
[25] = read-out: pLC50 (the source's name) (converted)

CC1(C)C[C@@H](O)[C@]2(C(=O)O)CC[C@]3(C)C(=CC[C@@H]4[C@@]5(C)C/C(=C\C=C\c6ccccc6)C(=O)C(C)(C)[C@@H]5CC[C@]43C)[C@@H]2C1
GI50 (SK-MEL-28; read-out: GI50): 4.37 µM | CC50 (SK-MEL-28; [24]): 51.8 µM | TGI (SK-MEL-28; read-out: TGI): 17 µM | GI50 (SK-MEL-28; read-out: pGI50 (converted)): 4.37 µM | CC50 (SK-MEL-28; [25]): 51.3 µM | TGI (SK-MEL-28; read-out: pTGI (converted)): 17 µM | growth at 100 µM (HCT-15): -80% | growth at 0.1 µM (NCI-H226 [1]): 92% | growth at 0.01 µM (MDA-MB-468 [2]): 95% | growth at 0.01 µM (IGROV-1): 107% | GI50 (SN12C [3]; read-out: GI50): 2.92 µM | CC50 (SN12C [3]; [24]): 36.1 µM | TGI (SN12C [3]; read-out: TGI): 10.7 µM | GI50 (SN12C [3]; read-out: pGI50 (converted)): 2.88 µM | CC50 (SN12C [3]; [25]): 36.3 µM | TGI (SN12C [3]; read-out: pTGI (converted)): 10.7 µM | GI50 (NCI-H226 [4]; read-out: GI50): 2.78 µM | LC50 (NCI-H226 [4]; read-out: LC50): 56.2 µM | TGI (NCI-H226 [4]; read-out: TGI): 12.8 µM | GI50 (NCI-H226 [4]; read-out: pGI50 (converted)): 2.75 µM | LC50 (NCI-H226 [4]; read-out: pLC50 (converted)): 56.2 µM | TGI (NCI-H226 [4]; read-out: pTGI (converted)): 12.9 µM | growth at 0.1 µM (SNB-19 [5]): 89% | growth at 0.01 µM (RPMI-8226): 98% | growth at 0.1 µM (NCI-H322M): 96% | growth at 1 µM (UO-31 [6]): 92% | growth at 1 µM (SW-620 [7]): 91% | growth at 100 µM (SNB-19 [8]): -91% | growth at 0.1 µM (SW-620 [9]): 97% | GI50 (UO-31 [10]; read-out: GI50): 3.39 µM | CC50 (UO-31 [10]; [24]): 45.9 µM | TGI (UO-31 [10]; read-out: TGI): 13.6 µM | GI50 (UO-31 [10]; read-out: pGI50 (converted)): 3.39 µM | CC50 (UO-31 [10]; [25]): 45.7 µM | TGI (UO-31 [10]; read-out: pTGI (converted)): 13.5 µM | growth at 1 µM (NCI-H460): 97% | GI50 (OVCAR-5; read-out: GI50): 2.97 µM | CC50 (OVCAR-5; [24]): 33.6 µM | TGI (OVCAR-5; read-out: TGI): 10.5 µM | GI50 (OVCAR-5; read-out: pGI50 (converted)): 2.95 µM | CC50 (OVCAR-5; [25]): 33.9 µM | TGI (OVCAR-5; read-out: pTGI (converted)): 10.5 µM | growth at 100 µM (SK-MEL-2): -72% | growth at 0.1 µM (HOP-62 [11]): 91% | growth at 100 µM (NCI-H226 [12]): -70% | growth at 0.1 µM (MDA-MB-231): 102% | growth at 0.01 µM (A498): 82% | GI50 (K562; read-out: GI50): 3.74 µM | LC50 (K562; read-out: LC50): > 100 µM | TGI (K562; read-out: TGI): > 100 µM | GI50 (K562; read-out: pGI50 (converted)): 3.72 µM | LC50 (K562; read-out: pLC50 (converted)): > 100 µM | TGI (K562; read-out: pTGI (converted)): > 100 µM | growth at 100 µM (HOP-92): -76% | growth at 0.01 µM (NCI-H23 [13]): 95% | growth at 0.01 µM (DU-145): 106% | growth at 100 µM (A549 [14]): -63% | growth at 0.01 µM (SN12C [15]): 98% | growth at 0.01 µM (UACC-62 [16]): 96% | growth at 1 µM (A549 [17]): 88% | growth at 1 µM (NCI-H23 [18]): 95% | growth at 1 µM (UACC-62 [19]): 88% | growth at 1 µM [20]: 87% | growth at 0.01 µM (NCI-H522): 89% | GI50 (M14; read-out: GI50): 3.74 µM | CC50 (M14; [24]): 52 µM | TGI (M14; read-out: TGI): 15.8 µM | GI50 (M14; read-out: pGI50 (converted)): 3.72 µM | CC50 (M14; [25]): 52.5 µM | TGI (M14; read-out: pTGI (converted)): 15.8 µM | growth at 1 µM (MOLT-4): 89% | growth at 1 µM (MDA-MB-468 [21]): 92% | growth at 1 µM (HOP-62 [22]): 97% | growth at 1 µM [23]: 87% | growth at 1 µM (SNB-75): 79%
